The assay concerns 677734-321-R-J1-PDC complex spheroid viability. Kind of assay: Anticancer human tumor 677734-321-R-J1-PDC patient-derived soft tissue sarcoma cell line growth inhibition [POLQ]. To be noted: for viability, T/C: stronger effect = lower value. The method, then:
Multicellular complex tumor spheroid response to Polymerase (POL) inhibitors (novobiocin, ART-558, RP6685) in combination with a variety of drugs and investigational agents in selected tumor cell lines
The POL inhibitors (novobiocin, ART-558, and RP6685) were evaluated both individually and in combination with standard of care and investigational anticancer small molecules within a complex spheroid model of solid tumors. . Complex spheroids include a stromal component modeled by human endothelial cells (HUVEC) and fibroblasts modeled by human mesenchymal stem cells (MSCs). The concentration ranges selected for each drug and investigational agent were based upon clinically achievable concentrations if the clinical Cmax of the agent was known.
Compounds. The drugs and investigational agents: novobiocin (NSC847541), ART-558 (NSC835418), RP-6685 (NSC848927), peposertib (NSC802822), ceralasertib (NSC780249), elimusertib (NSC800525), camonsertib (NSC841442), AZD-1390 (NSC803789), olaparib (NSC753686), talazoparib (NSC767125), rucaparib (NSC756644), sotorasib (NSC818433), MRTX-1133 (NSC836407), SN-38 (NSC673596), topotecan (NSC609699), epotoside (NSC141540), doxorubicin (NSC123127), gemcitabine (NSC613327), 5-fluorouracil (NSC19893), paclitaxel (NSC125973), vemurafenib (NSC761431), MSA-2 (NSC828583), SN-011 (NSC837082), adavosertib (NSC754352), prexasertib (NSC758257), carboplatin (NSC241240) and oxaliplatin (NSC266046), were obtained from the National Cancer Institute (NCI) Developmental Therapeutics Program Chemical Repository (21). The FDA-approved anticancer drug set is available from the Developmental Therapeutics Program at https://dtp.cancer.gov/organization/dscb/obtaining/. […] The stock solutions were prepared in dimethyl sulfoxide (DMSO, Sigma-Aldrich, St. Louis, MO, cat. D2650), except for the platinum compounds which were prepared in saline (Quality Biological, Gaithersburg, MD, cat. 114-055-101), at 800-fold the tested concentration and stored at -70 degrees C prior to their use. All drugs and investigational agents were tested over a range starting from a high concentration at or near the clinical Cmax and decreasing in half-log increments. If the clinical Cmax for an agent had not been determined, the highest concentration tested was 10 microM, except for SN-38, which was tested at a high concentration of 1 microM.
Cell Culture. All cells were maintained in an incubator at 37 degrees C and 5% CO2 with 95% humidity. The PDC lines were cultured according to standard operating procedures established by the NCI PDMR (https://pdmr.cancer.gov). Table 3 of the manuscript, lists the cell lines along with the number of the three cell types plated to form the mct-spheroids and media for tumor cell growth. After thawing, all PDC lines, except 997537-175-T-J1-PDC and 415267-285-R-J2-PDC, were cultured in Matrigel-coated flasks prepared with a working solution of 1X Ham's F-12 nutrient mix, without supplementation (Thermo Fisher Scientific, cat. 11765054), 100 U/mL penicillin-streptomycin (Thermo Fisher Scientific, cat. 15140122), and 2.5% Matrigel (Corning Inc., Corning, NY, cat. 354248) for the first three passages. The two PDC lines 997537-175-T-J1-PDC and 415267-285-R-J2-PDC were cultured on uncoated flasks. The 857933-349-R-J2-PDC line was cultured in 6C/Colon 1B media containing advanced DMEM/F-12 (Thermo Fisher Scientific, cat. 12634028), 10 mM HEPES (Thermo Fisher Scientific, cat. 15630080), 1X GlutaMAX supplement (Thermo Fisher Scientific, cat. 35050061), 0.1 mg/mL primocin (InvivoGen, San Diego, CA, cat. ant-pm-2), 10% defined fetal bovine serum, heat inactivated (HyClone Laboratories Inc., Logan, UT, cat. SH30070.03HI), 50% L-WRN conditioned media (ATCC, cat. CRL-3276), 1.25 mM N-Acetyl-L-cysteine (Sigma-Aldrich, cat. A9165), 10 mM nicotinamide (Sigma-Aldrich, cat. N0636), 1X B-27 supplement (Thermo Fisher Scientific, cat. 17504044), 1X N-2 supplement (Thermo Fisher Scientific, cat. […]

The mark [1] stands for this setting: curve of first compound, second compound 0.0316 µM.
Setting [2] is: curve of first compound, second compound 0.1 µM.
The mark [3] stands for this setting: curve of first compound, second compound 0.316 µM.
[4] abbreviates: curve of first compound, second compound 1 µM.
Where [5] appears, read: curve of first compound, second compound 3.16 µM.
Setting [6] is: curve of first compound, second compound 10 µM.
Setting [7] is: second compound 0.0316 µM, first compound 0.0316 µM.
The mark [8] stands for this setting: second compound 0.0316 µM, first compound 0.1 µM.
The mark [9] stands for this setting: second compound 0.0316 µM, first compound 0.316 µM.
Where [10] appears, read: second compound 0.0316 µM, first compound 1 µM.
Setting [11] is: second compound 0.0316 µM, first compound 3.16 µM.
[12] abbreviates: second compound 0.0316 µM, first compound 10 µM.
Where [13] appears, read: second compound 0.1 µM, first compound 0.0316 µM.
The mark [14] stands for this setting: second compound 0.1 µM, first compound 0.1 µM.
[15] abbreviates: second compound 0.1 µM, first compound 0.316 µM.
Where [16] appears, read: second compound 0.1 µM, first compound 1 µM.
Where [17] appears, read: second compound 0.1 µM, first compound 3.16 µM.
The mark [18] stands for this setting: second compound 0.1 µM, first compound 10 µM.
Where [19] appears, read: second compound 0.316 µM, first compound 0.0316 µM.
[20] abbreviates: second compound 0.316 µM, first compound 0.1 µM.
Setting [21] is: second compound 0.316 µM, first compound 0.316 µM.
Setting [22] is: second compound 0.316 µM, first compound 1 µM.
[23] abbreviates: second compound 0.316 µM, first compound 3.16 µM.
Setting [24] is: second compound 0.316 µM, first compound 10 µM.
Where [25] appears, read: second compound 1 µM, first compound 0.0316 µM.
[26] abbreviates: second compound 1 µM, first compound 0.1 µM.
Where [27] appears, read: second compound 1 µM, first compound 0.316 µM.
Setting [28] is: second compound 1 µM, first compound 1 µM.
Where [29] appears, read: second compound 1 µM, first compound 3.16 µM.
The mark [30] stands for this setting: second compound 1 µM, first compound 10 µM.
Setting [31] is: second compound 3.16 µM, first compound 0.0316 µM.
The mark [32] stands for this setting: second compound 3.16 µM, first compound 0.1 µM.
The mark [33] stands for this setting: second compound 3.16 µM, first compound 0.316 µM.
Setting [34] is: second compound 3.16 µM, first compound 1 µM.
The mark [35] stands for this setting: second compound 3.16 µM, first compound 3.16 µM.
[36] abbreviates: second compound 3.16 µM, first compound 10 µM.
The mark [37] stands for this setting: second compound 10 µM, first compound 0.0316 µM.
Where [38] appears, read: second compound 10 µM, first compound 0.1 µM.
[39] abbreviates: second compound 10 µM, first compound 0.316 µM.
[40] abbreviates: second compound 10 µM, first compound 1 µM.
The mark [41] stands for this setting: second compound 10 µM, first compound 3.16 µM.
Where [42] appears, read: second compound 10 µM, first compound 10 µM.

Values joined by “and” are separate entries in the source; they are usually repeats but may differ in a detail not shown here. Identical values can stand only once. Bounds are passed on as bounds.
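Note: spheroids exposed to compounds for one week.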

Take `O=C(c1cc(Cc2n[nH]c(=O)c3ccccc23)ccc1F)N1CCN(C(=O)C2CC2)CC1` + Cc1cccc(N(C)C(=O)C2C(O)CCN2c2nc(C)cc(C(F)(F)F)c2C#N)c1: the IC50 (in general, the concentration needed to halve the response being measured) under setting [1] was more than 10 µM; the IC50 under setting [2] is more than 10 µM; the IC50 under setting [3] was more than 10 µM; the IC50 under setting [4] was more than 10 µM; the IC50 under setting [5] was more than 10 µM; the IC50 under setting [6] is more than 10 µM. Moreover, the viability, T/C (as a rule, the result in the treated group divided by that in the control group, in per cent) reads like this: under setting [7], 108%; under setting [8], 95.2%; under setting [9], 101%; under setting [10], 97.2%; under setting [11], 96.8%; under setting [12], 83%. In addition, the viability, T/C runs as follows: under setting [13], 105%; under setting [14], 103%; under setting [15], 101%; under setting [16], 99.3%; under setting [17], 95.4%; under setting [18], 80%. Besides, the viability, T/C runs as follows: under setting [19], 103%; under setting [20], 103%; under setting [21], 97.5%; under setting [22], 94.6%; under setting [23], 100%; under setting [24], 80.2%. Besides, the viability, T/C reads like this: under setting [25], 115%; under setting [26], 93.3%; under setting [27], 102%; under setting [28], 103%; under setting [29], 100%; under setting [30], 84.7%. Further, the viability, T/C is, setting by setting: under setting [31], 110%; under setting [32], 95.8%; under setting [33], 103%; under setting [34], 99.6%; under setting [35], 98.9%; under setting [36], 81.6%. Also, the viability, T/C is 99.8% under setting [37]; 101% under setting [38]; 94.1% under setting [39]; 96.4% under setting [40]; 89.4% under setting [41]; 80.4% under setting [42].

Turning to `CNCc1ccc(-c2[nH]c3cc(F)cc4c3c2CCNC4=O)cc1` + Nc1ccc(C#CCN(C(=O)Cc2ncc(C(F)(F)F)cc2C(F)(F)F)c2ccc(F)cc2)nn1, the IC50 runs as follows: under setting [1], more than 10 µM; under setting [2], more than 10 µM; under setting [3], more than 10 µM; under setting [4], more than 10 µM; under setting [5], more than 10 µM; under setting [6], more than 10 µM. Moreover, the viability, T/C reads like this: under setting [7], 90.2%; under setting [8], 99.6%; under setting [9], 100%; under setting [10], 81%; under setting [11], 101%; under setting [12], 81.6%. The viability, T/C by setting is: under setting [13], 113%; under setting [14], 106%; under setting [15], 107%; under setting [16], 100%; under setting [17], 106%; under setting [18], 61.8%. Also, the viability, T/C is, setting by setting: under setting [19], 100%; under setting [20], 109%; under setting [21], 106%; under setting [22], 127%; under setting [23], 94.5%; under setting [24], 80.1%. The viability, T/C by setting is: under setting [25], 118%; under setting [26], 86.4%; under setting [27], 106%; under setting [28], 91.8%; under setting [29], 88.7%; under setting [30], 67.4%. Moreover, the viability, T/C was 97.7% under setting [31]; 109% under setting [32]; 109% under setting [33]; 113% under setting [34]; 101% under setting [35]; 63.5% under setting [36]. Moreover, the viability, T/C was 97.4% under setting [37]; 99.3% under setting [38]; 89.2% under setting [39]; 114% under setting [40]; 107% under setting [41]; 63.6% under setting [42].

For the molecule `O=c1[nH]cc(F)c(=O)[nH]1`, the viability, T/C is, setting by setting: (compound 0.0316 µM) 116% and 111% and 113%; (compound 0.1 µM) 101% and 86.4% and 96.7%; (compound 0.316 µM) 108% and 104% (2×); (compound 1 µM) 85.4% and 84.6% and 91.5%; (compound 3.16 µM) 54.7% and 62.5% and 51.4%; (compound 10 µM) 44.1% and 59% and 42.7%. For the same molecule, the half-inhibitory concentration (IC50) (curve of compound) was 5.22 µM and > 10 µM and 3.84 µM.

For `CCc1c2c(nc3ccc(O)cc13)-c1cc3c(c(=O)n1C2)COC(=O)[C@]3(O)CC`, the viability, T/C reads like this: (compound 0.00316 µM) 29.6% and 21.7% and 23.7%; (compound 0.01 µM) 13.3% and 10.5% and 14.2%; (compound 0.0316 µM) 5.51% and 5.68% and 5.45%; (compound 0.1 µM) 3.41% and 4.83% and 3.66%; (compound 0.316 µM) 1.89% and 3.99%; (compound 1 µM) 1.68% and 1.7% and 1.87%. The IC50 (curve of compound) was less than 0.00316 µM.

As for `C=CCn1c(=O)c2cnc(Nc3ccc(N4CCN(C)CC4)cc3)nc2n1-c1cccc(C(C)(C)O)n1`, the viability, T/C runs as follows: (compound 0.00316 µM) 109% and 100% and 106%; (compound 0.01 µM) 115% and 89.1% and 99%; (compound 0.0316 µM) 105% and 97.8% and 107%; (compound 0.1 µM) 103% and 90.1% and 87.8%; (compound 0.316 µM) 103% and 74.6% and 85.4%; (compound 1 µM) 64.8% and 36% and 39%. Further, the 50% inhibitory concentration (IC50) (curve of compound) was > 1 µM and 0.657 µM and 0.753 µM.

With `Cc1cccc(N(C)C(=O)C2C(O)CCN2c2nc(C)cc(C(F)(F)F)c2C#N)c1` (centres undefined), the viability, T/C runs as follows: (compound 0.0316 µM) 101% [middle of 13 runs]; (compound 0.1 µM) 103% [middle of 13 runs]; (compound 0.316 µM) 107% [middle of 13 runs]; (compound 1 µM) 99.2% [middle of 13 runs]; (compound 3.16 µM) 102% [middle of 13 runs]. Also, the IC50 (compound alone, run of 11/27/2023) is more than 10 µM and the IC50 (compound alone, run of 12/05/2023) is more than 10 µM.

`CCc1cc2c(N3CCc4c(cc(Cn5ccnc5)cc4-c4cn(C)nc4C(F)(F)F)C3=O)ccnc2c(OC)n1`: the viability, T/C (compound 0.0316 µM) was 108% and 98.5% and 105%; the viability, T/C (compound 0.1 µM) is 109% (2×) and 102%; the viability, T/C (compound 0.316 µM) is 98% and 85.5% and 106%; the viability, T/C (compound 1 µM) was 100% and 93.7% and 73.7%; the viability, T/C (compound 3.16 µM) was 92.4% and 69% and 64.4%; the viability, T/C (compound 10 µM) is 63.6% and 50.2% and 39.2%. Besides, the IC50 (curve of compound) was > 10 µM and 5.58 µM.
